These compounds were tested against EGFR (UniProt P00533) (assay: Inhibition of EGFR Kinase Activity).
Sequence of EGFR (P00533 whole entry, looked up): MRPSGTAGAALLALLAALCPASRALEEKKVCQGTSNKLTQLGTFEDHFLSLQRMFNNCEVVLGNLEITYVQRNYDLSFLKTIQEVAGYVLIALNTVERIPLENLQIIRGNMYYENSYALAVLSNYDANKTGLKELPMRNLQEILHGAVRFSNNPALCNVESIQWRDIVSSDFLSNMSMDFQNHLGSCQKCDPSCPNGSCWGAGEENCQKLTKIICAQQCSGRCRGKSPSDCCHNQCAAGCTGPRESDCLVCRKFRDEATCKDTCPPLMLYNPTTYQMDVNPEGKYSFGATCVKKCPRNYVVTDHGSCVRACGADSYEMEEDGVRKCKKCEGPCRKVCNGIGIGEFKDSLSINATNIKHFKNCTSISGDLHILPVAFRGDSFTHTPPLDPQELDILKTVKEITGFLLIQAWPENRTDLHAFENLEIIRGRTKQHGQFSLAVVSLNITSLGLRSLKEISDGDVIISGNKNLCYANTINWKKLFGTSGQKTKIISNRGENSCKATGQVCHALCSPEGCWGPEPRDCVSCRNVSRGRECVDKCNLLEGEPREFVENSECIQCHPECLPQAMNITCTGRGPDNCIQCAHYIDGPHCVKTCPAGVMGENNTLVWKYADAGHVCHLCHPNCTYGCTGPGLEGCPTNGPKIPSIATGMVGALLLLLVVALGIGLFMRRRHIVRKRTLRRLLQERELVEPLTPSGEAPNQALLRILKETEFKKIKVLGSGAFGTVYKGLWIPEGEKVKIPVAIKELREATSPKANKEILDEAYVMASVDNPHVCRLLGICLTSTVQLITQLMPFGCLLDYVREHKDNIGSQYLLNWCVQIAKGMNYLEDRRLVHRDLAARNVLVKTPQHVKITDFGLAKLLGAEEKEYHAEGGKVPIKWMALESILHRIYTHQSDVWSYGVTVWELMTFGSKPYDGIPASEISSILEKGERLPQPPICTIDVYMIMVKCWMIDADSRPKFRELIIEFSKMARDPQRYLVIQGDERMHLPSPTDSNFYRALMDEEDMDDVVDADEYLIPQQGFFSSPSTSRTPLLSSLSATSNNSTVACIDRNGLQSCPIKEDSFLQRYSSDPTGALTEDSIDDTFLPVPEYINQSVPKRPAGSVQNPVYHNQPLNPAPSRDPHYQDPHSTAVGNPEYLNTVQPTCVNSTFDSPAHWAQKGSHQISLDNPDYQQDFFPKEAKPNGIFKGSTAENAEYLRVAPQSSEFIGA

| IC50 [µM] | Structure (SMILES) |
| --- | --- |
| < 50 | C#CCC(=O)Nc1cccc(Nc2ncnc(NN3CCCc4cc(OC)ccc43)n2)c1 |
| < 50 | C=CC(=O)n1ncc2ccc(Nc3ncnc(Nc4ccc5c(cnn5Cc5ccccc5)c4)n3)cc21 |
| < 50 | C/C=C/C(=O)Nc1cccc(Nc2ncnc(Nc3ccc4c(ccn4Cc4ccccc4)c3)n2)c1 |
| < 50 | C=CC(=O)Nc1ccc(Nc2ncnc(Nc3ccc(OCC)c(OCC)c3)n2)cc1 |
| < 50 | CC#CC(=O)Nc1cccc(Nc2ncnc(N(C)c3cccc(C(N)=O)c3)n2)c1 |
| < 50 | CC#CC(=O)Nc1cccc(Nc2ncnc(N(C)c3ccc(OC)c(OCCOC)c3)n2)c1 |
| < 50 | C=CC(=O)Nc1ccc(Nc2ncnc(N(C)c3ccc4c(ccn4Cc4ccccc4)c3)n2)cc1 |
| < 50 | C=CC(=O)Nc1cccc(Nc2ncnc(Nc3cccc(Br)c3)n2)c1 |
| < 50 | C=CC(=O)Nc1ccc(Nc2ncnc(N(C)c3cc(Cl)ccc3C)n2)cc1 |
| < 50 | C=CC(=O)Nc1cccc(Nc2ncnc(N(C)c3cccc(C(N)=O)c3)n2)c1 |
| < 50 | C=CC(=O)N(CCCN1CCOCC1)c1cccc(Nc2ncnc(Nc3cccc(C)c3)n2)c1 |
| < 50 | C=CC(=O)Nc1cccc(Nc2ncnc(Nc3ccc(F)c(Cl)c3)n2)c1 |
| < 50 | CC#CC(=O)Nc1cccc(Nc2ncnc(Nc3cccc(C(N)=O)c3)n2)c1 |
| < 50 | C=CC(=O)Nc1ccc(Nc2ncnc(N(C)c3ccc(OCC)c(OCC)c3)n2)cc1 |
| < 50 | C=CC(=O)Nc1cc(Nc2ncnc(N(C)c3ccc(OCc4ccccc4)c(Cl)c3)n2)ccc1OCCCC1CCN(C)CC1 |
| < 50 | C=CCN(c1ccc(C(=O)OC)cc1)c1ncnc(Nc2ccc(NC(=O)C=C)cc2)n1 |
| < 50 | C=CCN(c1cccc(S(=O)(=O)c2ccc([N+](=O)[O-])cc2)c1)c1ncnc(Nc2cccc(NC(=O)C#CC)c2)n1 |
| < 50 | CC#CC(=O)Nc1cccc(Nc2ncnc(N(CC)c3cccc(C(N)=O)c3)n2)c1 |
| < 50 | C=CC(=O)Nc1cccc(Nc2ncnc(Nc3ccc(OC)c(OC)c3)n2)c1 |
| < 50 | C=CC(=O)N(CCCN1CCOCC1)c1cccc(Nc2ncnc(Nc3ccc4c(cnn4Cc4ccccc4)c3)n2)c1 |
| < 50 | C=CC(=O)Nc1ccc(Nc2ncnc(N(CC)c3ccc(C(=O)OC)cc3)n2)cc1 |
| < 50 | CC#CC(=O)Nc1cccc(Nc2ncnc(Nn3c(=O)[nH]c4ccccc43)n2)c1 |
| < 50 | C=CCN(c1ccc(OC)c(OCCOC)c1)c1ncnc(Nc2cccc(NC(=O)C#CC)c2)n1 |
| < 50 | CC#CC(=O)Nc1cccc(Nc2ncnc(N(CC)c3ccc(OCc4ccccc4)cc3)n2)c1 |

| IC50 [µM] | Structure (SMILES) |
| --- | --- |
| < 50 | C=CCN(c1ccc(OCC)c(OCC)c1)c1ncnc(Nc2ccc(NC(=O)C=C)cc2)n1 |
| < 50 | C=CCN(c1cccc(C(N)=O)c1)c1ncnc(Nc2cccc(NC(=O)C=C)c2)n1 |
| < 50 | C=CC(=O)N(CCCN1CCOCC1)c1cccc(Nc2ncnc(Nc3ccc(OCCO)cc3)n2)c1 |
| < 50 | C=CC(=O)Nc1ccc(Nc2ncnc(NN3CCCc4cc(Cl)ccc43)n2)cc1 |
| < 50 | C=CC(=O)Nc1cc(Nc2ncnc(Nc3ccc4c(ccn4Cc4ccccc4)c3)n2)ccc1OCCCC1CCN(C)CC1 |
| < 50 | C=CC(=O)Nc1ccc(Nc2ncnc(N(C)c3ccc(OC)c(OCCOC)c3)n2)cc1 |
| < 50 | CC#CC(=O)Nc1cc(Nc2ncnc(N(C)c3cccc(Cl)c3)n2)ccc1OCCCN1CCOCC1 |
| < 50 | C=CC(=O)Nc1cccc(Nc2ncnc(N(CC)c3cccc(CC(=O)OC)c3)n2)c1 |
| < 50 | C=CC(=O)Nc1cccc(Nc2ncnc(NN3CCCc4ccc(Cl)cc43)n2)c1 |
| < 50 | C=CC(=O)Nc1ccc(Nc2ncnc(N(C)c3cccc(C)c3)n2)cc1 |
| < 50 | C=CC(=O)Nc1ccc(Nc2ncnc(Nc3cccc(CC(=O)OC)c3)n2)cc1 |
| < 50 | CC#CC(=O)Nc1cccc(Nc2ncnc(N(C)c3ccc(OCCOC)c(OC)c3)n2)c1 |
| < 50 | CC#CC(=O)Nc1cc(Nc2ncnc(N(C)c3ccc4c(cnn4Cc4ccccc4)c3)n2)ccc1OCCCN1CCOCC1 |
| < 50 | C=CC(=O)Nc1cc(Nc2ncnc(N(C)c3ccc4c(cnn4Cc4ccccc4)c3)n2)ccc1OCCCC1CCN(C)CC1 |
| < 50 | C=CC(=O)Nc1cccc(Nc2ncnc(N(C)c3ccc4c(cnn4Cc4ccccc4)c3)n2)c1 |
| < 50 | C=CC(=O)Nc1ccc(Nc2ncnc(N(C)c3ccc4c(cnn4Cc4ccccc4)c3)n2)cc1 |
| < 50 | CC#CC(=O)Nc1cc(Nc2ncnc(Nc3ccc4c(ccn4Cc4ccccc4)c3)n2)ccc1OCCCN1CCOCC1 |
| < 50 | C=CC(=O)Nc1cccc(Nc2ncnc(N(CC)c3cccc(S(=O)(=O)c4ccc([N+](=O)[O-])cc4)c3)n2)c1 |
| < 50 | CC#CC(=O)Nc1cccc(Nc2ncnc(N(C)c3ccc(OC)c(OC)c3)n2)c1 |
| < 50 | C=CC(=O)Nc1ccc(Nc2ncnc(Nc3cccc4ccccc34)n2)cc1 |
| < 50 | O=C(/C=C/c1cccc(Nc2ncnc(Nc3ccc4c(cnn4Cc4ccccc4)c3)n2)c1)NCCCN1CCOCC1 |
| < 50 | C=CCN(c1cccc(S(=O)(=O)c2ccc([N+](=O)[O-])cc2)c1)c1ncnc(Nc2ccc(NC(=O)C=C)cc2)n1 |
| < 50 | CC#CC(=O)Nc1cccc(Nc2ncnc(N(C)c3cccc(CC(=O)OC)c3)n2)c1 |
| < 50 | C=CC(=O)Nc1ccc(Nc2ncnc(Nc3ccc(OCc4ccccc4)cc3)n2)cc1 |

| IC50 [µM] | Structure (SMILES) |
| --- | --- |
| < 50 | CC#CC(=O)Nc1cccc(Nc2ncnc(Nc3ccc(OCCOC)c(OC)c3)n2)c1 |
| < 50 | C=CCN(c1cccc(Cl)c1)c1ncnc(Nc2cccc(NC(=O)C=C)c2)n1 |
| < 50 | C=CC(=O)Nc1cccc(Nc2ncnc(N(C)c3ccc4c(ccn4Cc4ccccc4)c3)n2)c1 |
| < 50 | CC#CC(=O)Nc1cccc(Nc2ncnc(NC3CC3c3ccccc3)n2)c1 (stereo not given) |
| < 50 | C=CC(=O)Nc1cc(Nc2ncnc(NN3CCCc4ccc(Cl)cc43)n2)ccc1OCCCC1CCN(C)CC1 |
| < 50 | C=CCN(c1ccc(C(=O)OC)cc1)c1ncnc(Nc2cccc(NC(=O)C=C)c2)n1 |
| < 50 | C=CC(=O)Nc1ccc(Nc2ncnc(Nc3ccc4c(cnn4Cc4ccccc4)c3)n2)cc1 |
| < 50 | C=CC(=O)Nc1cccc(Nc2ncnc(Nc3cccc(C(N)=O)c3)n2)c1 |
| < 50 | CC#CC(=O)Nc1cccc(Nc2ncnc(n2)N(CC=C)c3ccc4NN(=Cc4c3)Cc5ccccn5)c1 |
| < 50 | C=CC(=O)Nc1cccc(Nc2ncnc(Nc3ccc(OCc4cccc(F)c4)cc3)n2)c1 |
| < 50 | C=CC(=O)Nc1ccc(Nc2ncnc(N(C)c3ccc4c(cnn4Cc4ccccc4)c3)n2)cc1OC |
| < 50 | C#CCC(=O)Nc1cccc(Nc2ncnc(NN3CCCc4ccc(Cl)cc43)n2)c1 |
| < 50 | CCN(c1ccc2NN(=Cc2c1)Cc3ccccn3)c4ncnc(Nc5ccc(NC(=O)C=C)cc5)n4 |
| < 50 | C=CCN(c1ccc(OCCC)c(OCCC)c1)c1ncnc(Nc2cccc(NC(=O)C#CC)c2)n1 |
| < 50 | C=CC(=O)Nc1cccc(Nc2ncnc(N(C)c3ccc(F)c(Cl)c3)n2)c1 |
| < 50 | C=CC(=O)Nc1ccc(Nc2ncnc(Nc3cc(OC)c(OC)c(OC)c3)n2)cc1 |
| < 50 | C=CC(=O)Nc1cccc(Nc2ncnc(N(CC)C3CC3c3ccccc3)n2)c1 (stereo not given) |
| < 50 | C=CC(=O)Nc1ccc(Nc2ncnc(N(CC)c3cccc(S(=O)(=O)c4ccc([N+](=O)[O-])cc4)c3)n2)cc1 |
| < 50 | C=CCN(c1cccc(C)c1)c1ncnc(Nc2cccc(NC(=O)C=C)c2)n1 |
| < 50 | C=CC(=O)Nc1cccc(Nc2ncnc(Nc3ccc(OCc4ccccc4Br)c(Cl)c3)n2)c1 |
| < 50 | C=CC(=O)Nc1cccc(Nc2ncnc(Nc3ccc4c(cnn4Cc4ccccc4)c3)n2)c1 |
| < 50 | CC#CC(=O)Nc1cc(Nc2ncnc(N(C)c3ccc4c(cnn4Cc4ccccc4)c3)n2)ccc1OC |
| < 50 | C=CC(=O)Nc1ccc(Nc2ncnc(Nc3ccc(OC)c(OC)c3)n2)cc1 |
| < 50 | CC#CC(=O)Nc1cccc(Nc2ncnc(Nc3ccc(OCCC)c(OCCC)c3)n2)c1 |

| IC50 [µM] | Structure (SMILES) |
| --- | --- |
| < 50 | C=CC(=O)Nc1cccc(Nc2ncnc(N(C)c3ccc(OCc4ccccc4)c(Cl)c3)n2)c1 |
| < 50 | C=CC(=O)Nc1ccc(Nc2ncnc(Nc3cccc(Cl)c3)n2)cc1 |
| < 50 | C=CC(=O)Nc1cccc(Nc2ncnc(N(C)c3ccc(OC)c(OCCOC)c3)n2)c1 |
| < 50 | CC#CC(=O)Nc1cc(Nc2ncnc(Nc3ccc4c(cnn4Cc4ccccc4)c3)n2)ccc1OCCCC1CCN(C)CC1 |
| < 50 | CC#CC(=O)Nc1cccc(Nc2ncnc(Nc3cc(OC)c(OC)c(OCCN4CCOCC4)c3)n2)c1 |
| < 50 | C=CCN(c1ccc2c(cnn2Cc2ccccc2)c1)c1ncnc(Nc2ccc(NC(=O)C=C)cc2)n1 |
| < 50 | C=CC(=O)Nc1ccc(Nc2ncnc(N(C)c3cccc(Cl)c3)n2)cc1 |
| < 50 | C=CCN(c1cccc(Cl)c1)c1ncnc(Nc2cccc(NC(=O)C#CC)c2)n1 |
| < 50 | CC#CC(=O)Nc1cccc(Nc2ncnc(N(CC)c3cccc(S(=O)(=O)c4ccc([N+](=O)[O-])cc4)c3)n2)c1 |
| < 50 | C=CCC(=O)Nc1cccc(Nc2ncnc(Nc3cccc(Cl)c3)n2)c1 |
| < 50 | C=CCN(c1cccc(CC(=O)OC)c1)c1ncnc(Nc2cccc(NC(=O)C=C)c2)n1 |
| < 50 | C=CC(=O)Nc1cccc(Nc2ncnc(Nc3cccc4ccccc34)n2)c1 |
| < 50 | C=CC(=O)Nc1cccc(Nc2ncnc(Nc3ccc(OC)c(OCCOC)c3)n2)c1 |
| < 50 | C=CCN(c1cccc(C(N)=O)c1)c1ncnc(Nc2ccc(NC(=O)C=C)cc2)n1 |
| < 50 | C=CCN(c1ccc(OCCOC)c(OC)c1)c1ncnc(Nc2cccc(NC(=O)C=C)c2)n1 |
| < 50 | C=CC(=O)Nc1cccc(Nc2ncnc(N(C)n3c(=O)[nH]c4ccccc43)n2)c1 |
| < 50 | CC#CC(=O)Nc1cccc(Nc2ncnc(N(CC)c3ccc(OC)c(OCCOC)c3)n2)c1 |
| < 50 | C=CC(=O)Nc1ccc(Nc2ncnc(N(CC)c3cccc(C(N)=O)c3)n2)cc1 |
| < 50 | C=CC(=O)Nc1cc(Nc2ncnc(N(C)c3ccc4c(ccn4Cc4ccccc4)c3)n2)ccc1OCCCC1CCN(C)CC1 |
| < 50 | C=CC(=O)Nc1cccc(Nc2ncnc(Nc3ccc(OCc4cccc(C(F)(F)F)c4)c(OC)c3)n2)c1 |
| < 50 | C=CC(=O)Nc1ccc(Nc2ncnc(N(CC)c3cc(OC)c(OC)c(OCCN4CCOCC4)c3)n2)cc1 |
| < 50 | C=CC(=O)Nc1ccc(Nc2ncnc(Nc3ccc(OCCOC)c(OC)c3)n2)cc1 |
| < 50 | C=CCN(c1cccc(C)c1)c1ncnc(Nc2ccc(NC(=O)C=C)cc2)n1 |
